According to US6409996B1, “Composition comprising one or more flavonoids, method of obtaining such composition and use thereof as UV-absorbing agent” (Flavone Sunproducts A/S, priority 1997, dated 2002):

Assay: solubility experiment in water at room temperature
Assay type: physicochemical
Experimental: A solubility experiment was carried out in which commercially available naringin was dissolved in water at room temperature. The naringin was dissolved in an amount of 0.1 g/l corresponding to around 0.01 weight-%. A pulverous test sample of a composition obtained from Citrus Aurantium by the method according to the invention and comprising about 20 weight-% naringin was also dissolved in water at room temperature. The composition was dissolved in an amount of […], corresponding to a […] solution of naringin weight-%. Accordingly the solubility of naringin is 300 times higher in water when obtained by the method according to the invention and being in the composition obtained from Citrus Aurantium by said method, than commercially available naringin.

Structure (SMILES): C[C@@H]1O[C@@H](O[C@H]2[C@H](Oc3cc(O)c4c(c3)O[C@H](c3ccc(O)cc3)CC4=O)O[C@H](CO)[C@@H](O)[C@@H]2O)[C@H](O)[C@H](O)[C@H]1O [naringin, naringenin-7β-neohesperidoside; 5,7,4′-trihydroxyflavanone-7β-neohesperidoside]
- amount dissolved in water: 0.1 g/L
- amount dissolved in water, as weight-% (commercially available naringin): around 0.01 weight-%
